# Measured values: PubChem BioAssay (NCI)
#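 Method: 48-hour compound exposure of cells in 96-well plates, five concentrations, linear interpolation of endpoints. TGI is the concentration that stops growth completely.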
# Tests used:
# Assay in all cases: NCI tumour cell line growth inhibition, 48 h
# 786-0 renal = system: 786-0 renal
# A549 NSCLC = system: A549 NSCLC
# ACHN renal = system: ACHN renal
# CAKI-1 renal = system: CAKI-1 renal
# CCRF-CEM leukemia = system: CCRF-CEM leukemia
# COLO 205 colon = system: COLO 205 colon
# DLD-1 colon = system: DLD-1 colon
# DMS 273 small cell lung = system: DMS 273 small cell lung
# EKVX NSCLC = system: EKVX NSCLC
# HCC-2998 colon = system: HCC-2998 colon
# HCT-116 colon = system: HCT-116 colon
# HCT-15 colon = system: HCT-15 colon
# HOP-18 NSCLC = system: HOP-18 NSCLC
# HOP-62 NSCLC = system: HOP-62 NSCLC
# HOP-92 NSCLC = system: HOP-92 NSCLC
# HT29 colon = system: HT29 colon
# IGROV1 ovarian = system: IGROV1 ovarian
# K-562 leukemia = system: K-562 leukemia
# KM12 colon = system: KM12 colon
# KM20L2 colon = system: KM20L2 colon
# LOX IMVI melanoma = system: LOX IMVI melanoma
# LXFL 529 NSCLC = system: LXFL 529 NSCLC
# M14 melanoma = system: M14 melanoma
# M19-MEL melanoma = system: M19-MEL melanoma
# MALME-3M melanoma = system: MALME-3M melanoma
# MOLT-4 leukemia = system: MOLT-4 leukemia
# NCI-H226 lung = system: NCI-H226 lung
# NCI-H23 lung = system: NCI-H23 lung
# NCI-H460 lung = system: NCI-H460 lung
# NCI-H522 lung = system: NCI-H522 lung
# OVCAR-3 ovarian = system: OVCAR-3 ovarian
# OVCAR-4 ovarian = system: OVCAR-4 ovarian
# OVCAR-5 ovarian = system: OVCAR-5 ovarian
# OVCAR-8 ovarian = system: OVCAR-8 ovarian
# RPMI-8226 leukemia = system: RPMI-8226 leukemia
# RXF 393 renal = system: RXF 393 renal
# RXF-631 renal = system: RXF-631 renal
# SF-268 CNS = system: SF-268 CNS
# SF-295 CNS = system: SF-295 CNS
# SF-539 CNS = system: SF-539 CNS
# SK-MEL-2 melanoma = system: SK-MEL-2 melanoma
# SK-MEL-28 melanoma = system: SK-MEL-28 melanoma
# SK-MEL-5 melanoma = system: SK-MEL-5 melanoma
# SK-OV-3 ovarian = system: SK-OV-3 ovarian
# SN12C renal = system: SN12C renal
# SNB-19 CNS = system: SNB-19 CNS
# SNB-75 CNS = system: SNB-75 CNS
# SNB-78 CNS = system: SNB-78 CNS
# SW-620 colon = system: SW-620 colon
# TK-10 renal = system: TK-10 renal
# U251 CNS = system: U251 CNS
# UACC-257 melanoma = system: UACC-257 melanoma
# UACC-62 melanoma = system: UACC-62 melanoma
# UO-31 renal = system: UO-31 renal
# XF 498 CNS = system: XF 498 CNS
# A498 renal = system: A498 renal
# DMS 114 small cell lung = system: DMS 114 small cell lung
# HL-60(TB) leukemia = system: HL-60(TB) leukemia
compound,measurement,setting,value
Cn1cc(NC(=O)c2cc(NC(=O)CCCCCCCCC(=O)Nc3cc(C(=O)Nc4cc(C(=O)NCCC(N)N)n(C)c4)n(C)c3)cn2C)cc1C(=O)NCCC(=N)N,TGI,786-0 renal,47.1 µM
same,TGI,A549 NSCLC,40 µM
same,TGI,ACHN renal,36.5 µM
same,TGI,CAKI-1 renal,49.7 µM
same,TGI,CCRF-CEM leukemia,49.3 µM
same,TGI,COLO 205 colon,> 100 µM
same,TGI,DLD-1 colon,73.9 µM
same,TGI,DMS 273 small cell lung,55.8 µM
same,TGI,EKVX NSCLC,48.1 µM
same,TGI,HCC-2998 colon,52 µM
same,TGI,HCT-116 colon,55.3 µM
same,TGI,HCT-15 colon,> 100 µM
same,TGI,HOP-18 NSCLC,47.2 µM
same,TGI,HOP-62 NSCLC,59.4 µM
same,TGI,HOP-92 NSCLC,65.2 µM
same,TGI,HT29 colon,49.7 µM
same,TGI,IGROV1 ovarian,74.4 µM
same,TGI,K-562 leukemia,40.9 µM
same,TGI,KM12 colon,63.4 µM
same,TGI,KM20L2 colon,44 µM
same,TGI,LOX IMVI melanoma,> 100 µM
same,TGI,LXFL 529 NSCLC,76.9 µM
same,TGI,M14 melanoma,66.3 µM
same,TGI,M19-MEL melanoma,66 µM
same,TGI,MALME-3M melanoma,15.5 µM
same,TGI,MOLT-4 leukemia,49.1 µM
same,TGI,NCI-H226 lung,70.7 µM
same,TGI,NCI-H23 lung,> 100 µM
same,TGI,NCI-H460 lung,62 µM
same,TGI,NCI-H522 lung,79.2 µM
same,TGI,OVCAR-3 ovarian,74.5 µM
same,TGI,OVCAR-4 ovarian,> 100 µM
same,TGI,OVCAR-5 ovarian,45.3 µM
same,TGI,OVCAR-8 ovarian,52.4 µM
same,TGI,RPMI-8226 leukemia,28.6 µM
same,TGI,RXF 393 renal,43.2 µM
same,TGI,RXF-631 renal,71.2 µM
same,TGI,SF-268 CNS,66.1 µM
same,TGI,SF-295 CNS,74.8 µM
same,TGI,SF-539 CNS,54.4 µM
same,TGI,SK-MEL-2 melanoma,49.3 µM
same,TGI,SK-MEL-28 melanoma,43.2 µM
same,TGI,SK-MEL-5 melanoma,30.2 µM
same,TGI,SK-OV-3 ovarian,78.7 µM
same,TGI,SN12C renal,68.9 µM
same,TGI,SNB-19 CNS,62.5 µM
same,TGI,SNB-75 CNS,55.3 µM
same,TGI,SNB-78 CNS,93.1 µM
same,TGI,SW-620 colon,44.9 µM
same,TGI,TK-10 renal,38.9 µM
same,TGI,U251 CNS,36.8 µM
same,TGI,UACC-257 melanoma,57 µM
same,TGI,UACC-62 melanoma,60.1 µM
same,TGI,UO-31 renal,56.9 µM
same,TGI,XF 498 CNS,66.8 µM
CC(C)OC(=O)c1cc(NC(=O)C(C)(C)C)c(F)cc1Cl,TGI,786-0 renal,> 100 µM
same,TGI,A498 renal,> 100 µM
same,TGI,A549 NSCLC,> 100 µM
same,TGI,ACHN renal,> 100 µM
same,TGI,CAKI-1 renal,> 100 µM
same,TGI,CCRF-CEM leukemia,> 100 µM
same,TGI,COLO 205 colon,> 100 µM
same,TGI,DMS 114 small cell lung,> 100 µM
same,TGI,DMS 273 small cell lung,> 100 µM
same,TGI,EKVX NSCLC,> 100 µM
same,TGI,HCC-2998 colon,> 100 µM
same,TGI,HCT-116 colon,> 100 µM
same,TGI,HCT-15 colon,> 100 µM
same,TGI,HL-60(TB) leukemia,> 100 µM
same,TGI,HOP-18 NSCLC,> 100 µM
same,TGI,HOP-62 NSCLC,> 100 µM
same,TGI,HOP-92 NSCLC,> 100 µM
same,TGI,HT29 colon,> 100 µM
same,TGI,IGROV1 ovarian,> 100 µM
same,TGI,K-562 leukemia,> 100 µM
same,TGI,KM12 colon,> 100 µM
same,TGI,KM20L2 colon,> 100 µM
same,TGI,LOX IMVI melanoma,> 100 µM
same,TGI,LXFL 529 NSCLC,> 100 µM
same,TGI,M14 melanoma,> 100 µM
same,TGI,M19-MEL melanoma,> 100 µM
same,TGI,MALME-3M melanoma,> 100 µM
same,TGI,MOLT-4 leukemia,> 100 µM
same,TGI,NCI-H226 lung,> 100 µM
same,TGI,NCI-H23 lung,> 100 µM
same,TGI,NCI-H460 lung,> 100 µM
same,TGI,NCI-H522 lung,> 100 µM
same,TGI,OVCAR-3 ovarian,> 100 µM
same,TGI,OVCAR-4 ovarian,> 100 µM
same,TGI,OVCAR-5 ovarian,> 100 µM
same,TGI,OVCAR-8 ovarian,> 100 µM
same,TGI,RPMI-8226 leukemia,> 100 µM
same,TGI,RXF 393 renal,> 100 µM
same,TGI,RXF-631 renal,> 100 µM
same,TGI,SF-268 CNS,> 100 µM
same,TGI,SF-295 CNS,> 100 µM
same,TGI,SF-539 CNS,> 100 µM
same,TGI,SK-MEL-2 melanoma,> 100 µM
same,TGI,SK-MEL-28 melanoma,> 100 µM
same,TGI,SK-MEL-5 melanoma,> 100 µM
same,TGI,SK-OV-3 ovarian,> 100 µM
same,TGI,SN12C renal,> 100 µM
same,TGI,SNB-19 CNS,> 100 µM
same,TGI,SNB-75 CNS,> 100 µM
same,TGI,SW-620 colon,> 100 µM
same,TGI,TK-10 renal,> 100 µM
same,TGI,U251 CNS,> 100 µM
same,TGI,UACC-257 melanoma,> 100 µM
same,TGI,UACC-62 melanoma,> 100 µM
same,TGI,UO-31 renal,> 100 µM
same,TGI,XF 498 CNS,> 100 µM
